Active and inactive are the calls of the source. The rule behind the calls is not given here.
Assays:
STAT5A/STAT5B = biological target: T1, STAT5A/STAT5B (Homo sapiens, UniProt P42229+P51692); assay: Induction of STAT5A/5B degradation in human MV4-11 cells measured for 6 hrs by immunoblotting analysis; type: cell-based
T1 sequence (P42229 whole entry): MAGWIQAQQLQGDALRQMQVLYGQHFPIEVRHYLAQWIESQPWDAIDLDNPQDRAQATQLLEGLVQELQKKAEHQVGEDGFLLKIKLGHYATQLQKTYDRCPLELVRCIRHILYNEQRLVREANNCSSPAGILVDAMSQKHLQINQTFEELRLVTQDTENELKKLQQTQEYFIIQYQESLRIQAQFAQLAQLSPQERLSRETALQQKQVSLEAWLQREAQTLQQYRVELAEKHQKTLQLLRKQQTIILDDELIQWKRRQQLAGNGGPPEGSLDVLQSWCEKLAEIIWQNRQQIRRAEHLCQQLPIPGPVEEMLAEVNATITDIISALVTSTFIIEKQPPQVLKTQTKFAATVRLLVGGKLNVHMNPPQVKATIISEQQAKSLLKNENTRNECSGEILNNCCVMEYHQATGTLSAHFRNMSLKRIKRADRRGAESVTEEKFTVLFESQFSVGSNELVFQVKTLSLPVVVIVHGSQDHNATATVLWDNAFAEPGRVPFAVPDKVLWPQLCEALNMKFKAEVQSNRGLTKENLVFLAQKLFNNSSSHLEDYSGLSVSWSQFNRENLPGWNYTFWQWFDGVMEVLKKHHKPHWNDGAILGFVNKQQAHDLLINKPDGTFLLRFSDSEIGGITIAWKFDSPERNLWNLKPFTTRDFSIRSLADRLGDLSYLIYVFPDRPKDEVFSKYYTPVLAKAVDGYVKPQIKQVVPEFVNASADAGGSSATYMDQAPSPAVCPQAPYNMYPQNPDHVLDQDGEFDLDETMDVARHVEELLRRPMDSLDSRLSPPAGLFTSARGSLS
T1 sequence (P51692 whole entry): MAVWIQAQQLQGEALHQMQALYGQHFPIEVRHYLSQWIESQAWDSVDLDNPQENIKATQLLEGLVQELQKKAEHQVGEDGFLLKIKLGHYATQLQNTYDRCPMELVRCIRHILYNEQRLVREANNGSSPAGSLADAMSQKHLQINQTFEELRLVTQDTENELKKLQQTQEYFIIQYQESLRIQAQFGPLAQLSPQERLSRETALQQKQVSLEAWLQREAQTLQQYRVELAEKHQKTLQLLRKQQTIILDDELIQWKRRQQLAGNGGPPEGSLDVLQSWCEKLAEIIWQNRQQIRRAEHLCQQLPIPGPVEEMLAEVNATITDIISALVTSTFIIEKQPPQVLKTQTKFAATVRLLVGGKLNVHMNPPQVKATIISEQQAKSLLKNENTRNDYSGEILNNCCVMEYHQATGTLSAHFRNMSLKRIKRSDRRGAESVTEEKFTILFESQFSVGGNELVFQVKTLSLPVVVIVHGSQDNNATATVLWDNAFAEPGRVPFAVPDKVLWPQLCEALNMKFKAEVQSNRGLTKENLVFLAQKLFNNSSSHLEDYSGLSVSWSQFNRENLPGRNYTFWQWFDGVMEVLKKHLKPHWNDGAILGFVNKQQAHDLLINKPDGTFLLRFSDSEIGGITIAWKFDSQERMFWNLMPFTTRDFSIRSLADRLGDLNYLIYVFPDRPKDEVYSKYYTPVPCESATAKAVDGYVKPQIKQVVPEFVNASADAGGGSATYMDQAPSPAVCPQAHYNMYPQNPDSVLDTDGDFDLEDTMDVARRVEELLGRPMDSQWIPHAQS

[1] = Antiproliferative activity against human SKNO-1 cells assessed as maximal cell growth inhibition measured for 4 days by celltiter-glo assay relative to control; type: functional; details: time 4 day
HL-60 [2] = assay: Antiproliferative activity against human HL-60 cells assessed as maximal cell growth inhibition measured for 4 days by celltiter-glo assay relative to control; type: functional; details: time 4 day
[3] = Half life in SCID mouse at 150 mg/kg, ip; type: ADME, organism-based; details: in vivo
MV4-11 [4] = assay: Antiproliferative activity against human MV4-11 cells assessed as cell growth inhibition measured for 4 days by celltiter-glo assay; details: MV4-11, 96 h
SKNO-1 [5] = assay: Effect on STAT4 level in human SKNO-1 cells upto 5 uM measured for 18 hrs by Western blot analysis; type: functional, cell-based
Protein cereblon = Protein cereblon (Homo sapiens, UniProt Q96SW2); assay: Binding affinity to GST-tagged wild type human CRBN assessed as inhibition constant by TR-FRET assay
Chain of Protein cereblon (Q96SW2 whole entry): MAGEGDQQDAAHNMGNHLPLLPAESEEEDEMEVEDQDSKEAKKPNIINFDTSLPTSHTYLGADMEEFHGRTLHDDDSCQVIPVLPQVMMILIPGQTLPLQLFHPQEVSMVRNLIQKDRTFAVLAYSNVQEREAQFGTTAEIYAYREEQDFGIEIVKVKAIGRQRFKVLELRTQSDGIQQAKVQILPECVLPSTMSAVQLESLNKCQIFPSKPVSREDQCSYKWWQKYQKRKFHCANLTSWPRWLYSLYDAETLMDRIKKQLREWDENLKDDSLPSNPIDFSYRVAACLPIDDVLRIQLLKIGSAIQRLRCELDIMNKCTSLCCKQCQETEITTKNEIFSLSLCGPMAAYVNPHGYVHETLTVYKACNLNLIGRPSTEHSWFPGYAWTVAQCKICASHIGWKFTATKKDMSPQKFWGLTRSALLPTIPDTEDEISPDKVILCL

Mus musculus = assay: In vivo induction of degradation of STAT5 in human MV4-11 cells xenografted in SCID mouse assessed as reduction in STAT5 levels at 150 mg/kg, ip measured at 1 hrs by immunoblotting analysis; type: functional, organism-based
[6] = Clearance in SCID mouse at 150 mg/kg, ip; type: ADME, organism-based; details: in vivo
MV4-11 [7] = assay: Antitumor activity against human MV4-11 cells xenografted in SCID mouse assessed as tumor growth inhibition at 100 mg/kg, ip administered 5 days a week for 3 weeks; type: functional; details: MV4-11, 504 h, read-out: TGI
SKNO-1 [8] = assay: Effect on STAT2 level in human SKNO-1 cells upto 5 uM measured for 18 hrs by Western blot analysis; type: functional, cell-based
[9] = biological target: T2, Signal transducer and activator of transcription 5A (Homo sapiens, UniProt P42229); assay: Induction of STAT5 degradation in human Kasumi-3 cells assessed as reduction in phosphorylated STAT5 level measured for 18 hrs by immunoblotting analysis; type: cell-based
T2 sequence (P42229 whole entry): T1 sequence (P42229 whole entry)

MV4-11 [10] = assay: Effect on STAT2 level in human MV4-11 cells upto 5 uM measured for 18 hrs by Western blot analysis; type: functional, cell-based
HL-60 [11] = assay: Antiproliferative activity against human HL-60 cells assessed as cell growth inhibition measured for 4 days by celltiter-glo assay; details: HL-60, 96 h
[12] = In vivo induction of degradation of STAT5 in human MV4-11 cells xenografted in SCID mouse assessed as reduction in STAT5 levels at 150 mg/kg, ip measured at 1 to 24 hrs by immunoblotting analysis; type: functional; design: scale not given: the % may be the effect or the level left; details: time 1-24 hrs
[13] = In vivo induction of degradation of STAT5 in human MV4-11 cells xenografted in SCID mouse assessed as reduction in STAT5 phosphorylation at Y694 residue at 150 mg/kg, ip measured at 24 hrs by immunoblotting analysis; type: functional; design: scale not given: the % may be the effect or the level left
MV4-11 [14] = assay: Effect on STAT6 level in human MV4-11 cells upto 5 uM measured for 18 hrs by Western blot analysis; type: functional, cell-based
OCI-AML2 [15] = assay: Antiproliferative activity against human OCI-AML2 cells assessed as cell growth inhibition measured for 4 days by celltiter-glo assay; details: OCI-AML2, 96 h
MV4-11 [16] = assay: Antitumor activity against human MV4-11 cells xenografted in SCID mouse assessed as tumor growth inhibition at 200 mg/kg, ip administered 5 days a week for 3 weeks; type: functional; details: MV4-11, 504 h, read-out: TGI
OCI-AML2 [17] = assay: Antiproliferative activity against human OCI-AML2 cells assessed as maximal cell growth inhibition measured for 4 days by celltiter-glo assay relative to control; type: functional; details: time 4 day
MOLM-13 = assay: Antiproliferative activity against human MOLM-13 cells assessed as cell growth inhibition measured for 4 days by celltiter-glo assay; details: MOLM-13, 96 h

CN(CCCC#Cc1cccc2c1CN(C1CCC(=O)NC1=O)C2=O)C(=O)CCN(C(=O)[C@@H]1CCCN1C(=O)[C@@H](NC(=O)c1cc2cc(C(F)(F)P(=O)(O)O)ccc2s1)C(C)(C)C)c1ccc(-c2nccs2)cc1 (stereo partly specified)
DC50 (STAT5A/STAT5B): 50 nM
Imax [1]: 64%
Imax (HL-60 [2]): <5%
half-life [3]: 1.9 h
IC50 (MV4-11 [4]): 180 nM
Activity (SKNO-1 [5]): inactive
Ki (Protein cereblon): 170 nM
Activity (Mus musculus): Active
CL/F [6]: 12.8 mL/min/kg
inhibition in vivo at 100 mg/kg (MV4-11 [7]): 60%
Activity (SKNO-1 [8]): inactive
DC50 [9]: 250 nM
Activity (MV4-11 [10]): inactive
IC50 (HL-60 [11]): > 15000 nM
Activity [12]: >95%
Activity [13]: >70%
Activity (MV4-11 [14]): inactive
IC50 (OCI-AML2 [15]): > 15000 nM
inhibition in vivo at 200 mg/kg (MV4-11 [16]): 80%
Imax (OCI-AML2 [17]): <5%
IC50 (MOLM-13): > 15000 nM

From ChEMBL document CHEMBL5380794, “Discovery of a Potent and Selective STAT5 PROTAC Degrader with Strong Antitumor Activity In Vivo in Acute Myeloid Leukemia” (J Med Chem, 2023)
